Patent US10214531B2 (Institute for Drug Discovery, LLC, priority 2013, dated 2019)
Structures can show the parent of a compound that is named as a salt.

Each compound was assayed against recombinant human AMCase (Homo sapiens, UniProt Q9BZP6) (assay: Human AMCase Activity Assay). Settings: recombinant hAMCase, 4-methylumbelliferyl chitobioside substrate, citrate buffer pH 5.2, 37° C., 60 minutes; read-out: Activity (IC50 value key).
Type: biochemical
Outline: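 Recombinant human enzyme with fluorogenic 4-methylumbelliferyl β-D-N,N′-diacetylchitobioside substrate in citrate buffer, pH 5.2, 60 min at 37 °C in the dark with shaking. Read-out is 4MU fluorescence at 460 nm.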

Sequence of recombinant human AMCase (Q9BZP6 22-476): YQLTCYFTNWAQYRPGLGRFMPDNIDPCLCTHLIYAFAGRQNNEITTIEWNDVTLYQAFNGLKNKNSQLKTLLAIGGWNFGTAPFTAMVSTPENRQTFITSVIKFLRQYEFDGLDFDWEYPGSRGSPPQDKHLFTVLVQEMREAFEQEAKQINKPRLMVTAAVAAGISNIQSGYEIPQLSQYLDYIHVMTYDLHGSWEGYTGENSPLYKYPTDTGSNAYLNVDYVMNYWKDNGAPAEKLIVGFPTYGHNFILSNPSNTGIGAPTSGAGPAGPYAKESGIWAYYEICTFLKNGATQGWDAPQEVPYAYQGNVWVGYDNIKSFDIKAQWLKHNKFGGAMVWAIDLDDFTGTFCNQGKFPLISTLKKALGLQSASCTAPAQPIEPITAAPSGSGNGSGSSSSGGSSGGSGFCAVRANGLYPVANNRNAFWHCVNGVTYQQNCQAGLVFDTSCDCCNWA

| IC50 | Compound |
| --- | --- |
| 1 to 10 µM | Nc1n[nH]c(N2CCC(NS(=O)(=O)Cc3ccc(Cl)cc3)CC2)n1 [Example 14, N-(1-(3-amino-1H-1,2,4-triazol-5-yl)piperidin-4-yl)-1-(4-chlorophenyl)methanesulfonamide dihydrochloride] |
| 10 to 100 µM | CC(CN(C)C1CCN(c2nc(N)n[nH]2)CC1)c1ccc(Cl)cc1 (stereo not drawn) [Example 140, 1-(3-amino-1H-1,2,4-triazol-5-yl)-N-(2-(4-chlorophenyl)propyl)-N-methylpiperidin-4-amine dihydrochloride] |
| 1 to 10 µM | Nc1n[nH]c(N2CCC(CCCCO)(NS(=O)(=O)Cc3ccc(Br)cc3)CC2)n1 [Example 256, N-(1-(3-amino-1H-1,2,4-triazol-5-yl)-4-(4-hydroxybutyl)piperidin-4-yl)-1-(4-bromophenyl)methanesulfonamide] |
| > 100 µM | CN(C)C(Cc1ccc(Cl)cc1Cl)C(=O)N1CCN(c2nc(N)n[nH]2)CC1 (stereo not drawn) [Example 240, 1-(4-(3-amino-1H-1,2,4-triazol-5-yl)piperazin-1-yl)-3-(2,4-dichlorophenyl)-2-(dimethylamino)propan-1-one] |
| > 100 µM | Nc1n[nH]c(N2CCC(NC(=O)Nc3ccc(F)c(F)c3)CC2)n1 [Example 68, 1-(1-(3-amino-1H-1,2,4-triazol-5-yl)piperidin-4-yl)-3-(3,4-difluorophenyl)urea] |
| < 0.1 µM | Nc1n[nH]c(N2CCC3C(CCCN3CCc3ccc(Br)cc3)C2)n1 (stereo not drawn) [Example 253, 5-(1-(4-bromophenethyl)octahydro-1,6-naphthyridin-6(2H)-yl)-1H-1,2,4-triazol-3-amine dihydrochloride] |
| 0.1 to 1 µM | CN(CCc1ccc(Cl)cc1)C1(CCO)CCN(c2nc(N)n[nH]2)CC1 [Example 228, 2-(1-(3-amino-1H-1,2,4-triazol-5-yl)-4-((4-chlorophenethyl)(methyl)amino)piperidin-4-yl)ethanol] |
| 1 to 10 µM | CN(CCc1ccc2c(c1)OCO2)C1CCN(c2nc(N)n[nH]2)CC1 [Example 170, 1-(3-amino-1H-1,2,4-triazol-5-yl)-N-(2-(benzo[d][1,3]dioxol-5-yl)ethyl)-N-methylpiperidin-4-amine] |
| > 100 µM | Nc1n[nH]c(N2CCN(C(=O)CC(N)c3ccccc3F)CC2)n1 (stereo not drawn) [Example 214, 3-amino-1-(4-(3-amino-1H-1,2,4-triazol-5-yl)piperazin-1-yl)-3-(2-fluorophenyl)propan-1-one dihydrochloride] |
| 0.1 to 1 µM | Nc1n[nH]c(N2CCN(C(CCc3ccc(Br)cc3)Cc3ccccc3)CC2)n1 (stereo not drawn) [Example 257, 5-(4-(4-(4-bromophenyl)-1-phenylbutan-2-yl)piperazin-1-yl)-1H-1,2,4-triazol-3-amine trifluoroacetate] |
| > 100 µM | Nc1n[nH]c(N2CCC(C(=O)NCc3cccc4ccccc34)CC2)n1 [Example 195, 1-(3-amino-1H-1,2,4-triazol-5-yl)-N-(naphthalen-1-ylmethyl)piperidine-4-carboxamide] |
| 1 to 10 µM | Nc1n[nH]c(N2CCN(CCOc3ccc(Cl)cc3)CC2)n1 [Example 2, 5-(4-(2-(4-chlorophenoxy)ethyl)piperazin-1-yl)-1H-1,2,4-triazol-3-amine] |
| 10 to 100 µM | Nc1n[nH]c(N2CCN(CCOc3ccccc3-c3ccccc3)CC2)n1 [Example 83, 5-(4-(2-([1,1′-biphenyl]-2-yloxy)ethyl)piperazin-1-yl)-1H-1,2,4-triazol-3-amine] |
| 0.1 to 1 µM | Nc1n[nH]c(N2CCC(N(CCc3ccc(Cl)cc3)[C@@H](CO)c3ccccc3)CC2)n1 [Example 107, (R)-2-((1-(3-amino-1H-1,2,4-triazol-5-yl)piperidin-4-yl)(4-chlorophenethyl)amino)-2-phenylethan-1-ol] |
| 10 to 100 µM | Nc1n[nH]c(N2CCN(CCCc3ccccc3)C(CCCO)C2)n1 (stereo not drawn) [Example 226] |
| 1 to 10 µM | CN(CCc1ccc(Cl)cc1)C1CCN(c2nc(N)n[nH]2)CC1F (stereo not drawn) [Example 249, 1-(3-amino-1H-1,2,4-triazol-5-yl)-N-(4-chlorophenethyl)-3-fluoro-N-methylpiperidin-4-amine] |
| 0.1 to 1 µM | CCN(C1CCN(c2nc(N)n[nH]2)CC1)S(=O)(=O)Cc1cccc(Cl)c1 [Example 238, N-(1-(3-amino-1H-1,2,4-triazol-5-yl)piperidin-4-yl)-1-(3-chlorophenyl)-N-ethylmethanesulfonamide] |
| > 100 µM | C[C@H](Oc1ccc(Cl)cc1)C(=O)N1CCN(c2nc(N)n[nH]2)CC1 [Example 10, (S)-1-(4-(3-amino-1H-1,2,4-triazol-5-yl)piperazin-1-yl)-2-(4-chlorophenoxy)propan-1-one] |
| < 0.1 µM | Nc1n[nH]c(N2CCC(N(CCc3ccc(Br)cc3)Cc3cccc4ccncc34)CC2)n1 [Example 105, 1-(3-amino-1H-1,2,4-triazol-5-yl)-N-(4-bromophenethyl)-N-(isoquinolin-8-ylmethyl) piperidin-4-amine] |
| > 100 µM | CC1(C(=O)NCc2ccc(Br)cc2)CCN(c2nc(N)n[nH]2)CC1 [Example 237, 1-(3-amino-1H-1,2,4-triazol-5-yl)-N-(4-bromobenzyl)-4-methylpiperidine-4-carboxamide] |

| IC50 | Compound |
| --- | --- |
| < 0.1 µM | N#Cc1ccc(CN(CCc2ccc(Cl)cc2)C2CCN(c3nc(N)n[nH]3)CC2)cc1 [Example 142, 4-(((1-(3-amino-1H-1,2,4-triazol-5-yl)piperidin-4-yl)(4-chlorophenethyl)amino)methyl)benzonitrile] |
| > 100 µM | CCc1ccccc1OC(C)C(=O)N1CCN(c2nc(N)n[nH]2)CC1 (stereo not drawn) [Example 33, 1-(4-(3-amino-1H-1,2,4-triazol-5-yl)piperazin-1-yl)-2-(2-ethylphenoxy)propan-1-one] |
| < 0.1 µM | Cc1ccc(CN(CCc2ccc(Cl)cc2)C2CCN(c3nc(N)n[nH]3)CC2)cc1 [Example 102, 1-(3-amino-1H-1,2,4-triazol-5-yl)-N-(4-chlorophenethyl)-N-(4-methylbenzyl) piperidin-4-amine] |
| > 100 µM | CC(=O)NC(CC(=O)N1CCN(c2nc(N)n[nH]2)CC1)c1ccc(F)cc1 (stereo not drawn) [Example 76, N-(3-(4-(3-amino-1H-1,2,4-triazol-5-yl)piperazin-1-yl)-1-(4-fluorophenyl)-3-oxopropyl)acetamide] |
| < 0.1 µM | CC(Cc1ccc(Cl)cc1)N(Cc1ccccc1)C1CCN(c2nc(N)n[nH]2)CC1 (stereo not drawn) [Example 159, 1-(3-amino-1H-1,2,4-triazol-5-yl)-N-benzyl-N-(1-(4-chlorophenyl)propan-2-yl)piperidin-4-amine dihydrochloride] |
| 10 to 100 µM | CN(CCc1ccccc1OC(F)(F)F)C1CCN(c2nc(N)n[nH]2)CC1 [Example 174, 1-(3-amino-1H-1,2,4-triazol-5-yl)-N-methyl-N-(2-(trifluoromethoxy)phenethyl)piperidin-4-amine] |
| > 100 µM | Nc1n[nH]c(N2CCC(C(=O)NCc3ccc(F)c(C(F)(F)F)c3)CC2)n1 [Example 54, 1-(3-amino-1H-1,2,4-triazol-5-yl)-N-(4-fluoro-3-(trifluoromethyl)benzyl)piperidine-4-carboxamide] |
| > 100 µM | CN(Cc1ccc(Cl)cc1)C(=O)C1(C)CCN(c2nc(N)n[nH]2)CC1 [Example 91, 1-(3-amino-1H-1,2,4-triazol-5-yl)-N-(4-chlorobenzyl)-N,4-dimethyl piperidine-4-carboxamide] |
| 10 to 100 µM | Nc1n[nH]c(N2CCC(NS(=O)(=O)Cc3cccc(F)c3)CC2)n1 [Example 56, N-(1-(3-amino-1H-1,2,4-triazol-5-yl)piperidin-4-yl)-1-(3-fluorophenyl)methanesulfonamide] |
| > 100 µM | Nc1n[nH]c(N2CCC(C(=O)NCC3CCC(F)(F)CC3)CC2)n1 [Example 207, 1-(3-amino-1H-1,2,4-triazol-5-yl)-N-((4,4-difluorocyclohexyl)methyl)piperidine-4-carboxamide] |
| > 100 µM | CC1(C(=O)NCc2ccc(Cl)cc2)CCN(c2nc(N)n[nH]2)CC1 [Example 235, 1-(3-amino-1H-1,2,4-triazol-5-yl)-N-(4-chlorobenzyl)-4-methylpiperidine-4-carboxamide] |
| 10 to 100 µM | COc1ccc(OC)c(CCN(C)C2CCN(c3nc(N)n[nH]3)CC2)c1 [Example 182, 1-(3-amino-1H-1,2,4-triazol-5-yl)-N-(2,5-dimethoxyphenethyl)-N-methylpiperidin-4-amine] |
| < 0.1 µM | Nc1n[nH]c(N2CCC(N(CCc3ccc(Cl)cc3)Cc3ccc(-c4ccn[nH]4)cc3)CC2)n1 [Example 115, N-(4-(1H-pyrazol-5-yl)benzyl)-1-(3-amino-1H-1,2,4-triazol-5-yl)-N-(4-chlorophenethyl) piperidin-4-amine dihydrochloride] |
| 1 to 10 µM | CC(C)(O)CCC1CN(c2nc(N)n[nH]2)CCN1CCCc1ccc(Br)cc1 (stereo not drawn) [Example 229, 4-(4-(3-amino-1H-1,2,4-triazol-5-yl)-1-(3-(4-bromophenyl)propyl)piperazin-2-yl)-2-methylbutan-2-ol] |
| 0.1 to 1 µM | C[C@H](CN1CCN(c2nc(N)n[nH]2)CC1)Oc1ccc(Br)cc1 [Example 90, (R)-5-(4-(2-(4-bromophenoxy)propyl)piperazin-1-yl)-1H-1,2,4-triazol-3-amine] |
| > 100 µM | Cc1ccccc1OC(C)C(=O)N1CCN(c2nc(N)n[nH]2)CC1 (stereo not drawn) [Example 32, 1-(4-(3-amino-1H-1,2,4-triazol-5-yl)piperazin-1-yl)-2-(o-tolyloxy)propan-1-one] |
| > 100 µM | Nc1n[nH]c(N2CCN(C(=O)COc3ccc(Cl)cc3)CC2)n1 [Example 24, 1-(4-(3-amino-1H-1,2,4-triazol-5-yl)piperazin-1-yl)-2-(4-chlorophenoxy)-ethanone] |
| > 100 µM | Nc1n[nH]c(N2CCC(C(=O)NCc3ccccc3Br)CC2)n1 [Example 53, 1-(3-amino-1H-1,2,4-triazol-5-yl)-N-(2-bromobenzyl)piperidine-4-carboxamide] |
| < 0.1 µM | Nc1nc(N2CCC(N(CCc3ccc(Cl)cc3)Cc3cccc(C(F)(F)F)c3)CC2)n[nH]1 [Example 156, 1-(3-amino-1H-1,2,4-triazol-5-yl)-N-(4-chlorophenethyl)-N-(3-(trifluoromethyl)benzyl)piperidin-4-amine] |
